Laboratory results taken from PMC12386934, “Characteristics and Potential of KSL, KSL-W, and Dadapin-1 Antimicrobial Peptides for Preventing Infections of Orthopedic Prosthetic Devices: Identifying the Most Robust Candidate” (International Journal of Molecular Sciences, 2025).
Where a SMILES comes first, the peptide text is derived from it.

Test system: MG63 cells co-cultured with S. aureus ATCC 25923
Experiment: Suppression of S. aureus cytotoxicity in co-culture, LDH assay
Assay type: cell-based, human
Details: MG63 co-cultured with S. aureus ATCC 25923, 24 h, lowest concentration tested
Protocol: KSL-W was the peptide selected to investigate the efficacy in suppressing the cytotoxicity of S. aureus ATCC 25923 on osteoblast-like MG63 cells. S. aureus ATCC 25923 was thawed from the frozen stock and plated on MHA and incubated at 37 °C for 24 h.
A suspension of MG63 cells was prepared in complete DMEM at a concentration of 5 × 10^4 cells/mL. A total of 100 µL of cell suspension was added to each well of a 96-well cell culture-treated plate (137101, Nunclon Delta Black Microwell, ThermoScientific, Thermo Fisher Scientific, Segrate, Italy). After cell seeding, the plate was incubated for a day at 37 °C under standard culture conditions. […]
Cytotoxicity was assessed by measuring the release of lactate dehydrogenase (LDH) from damaged cells by the LDH Cytotoxicity Assay (ab197004, Abcam, Cambridge, UK), strictly following the instructions of the manufacturer. […] After 10 min shaking, the plate was read in fluorescence (excitation: 535 nm; emission 587 nm) by an Infinite 200 PRO mod. M PLEX multifunction plate reader (Tecan Group Ltd., Männedorf, Switzerland). […]
Data in relative fluorescence units (RFU) from the investigation on KSL-W suppression of S. aureus cytotoxicity were processed as follows. The mean of the duplicate readings from each single treated well was calculated. […]

CC(C)[C@H](NC(=O)[C@H](Cc1c[nH]c2ccccc12)NC(=O)[C@H](Cc1ccccc1)NC(=O)[C@@H](NC(=O)[C@@H](NC(=O)[C@H](CCCCN)NC(=O)[C@@H](N)CCCCN)C(C)C)C(C)C)C(=O)N[C@@H](CCCCN)C(=O)N[C@@H](Cc1ccccc1)C(=O)N[C@@H](CCCCN)C(=O)O [KSL-W] (H-KKVVFWVKFK-OH)
concentration completely suppressing cytotoxicity due to S. aureus: 75 µg/mL
